# Measurements taken from patent US20100234351A1, “FUSED NITROGEN-COMPRISING HETEROCYCLIC COMPOUND” (TAKEDA PHARMACEUTICAL COMPANY LIMITED, priority 2006, published 2010).
# Counter-ions that a name gives are not always drawn.
# Biological target: T1, HER2 intracellular domain (Homo sapiens, UniProt P04626)
# T1 construct: made in house; host or cells: SF-21 insect cells infected with recombinant baculovirus BAC-HER2
# Assay: Measurement of HER2 kinase inhibitory activity
# Assay type: biochemical
# Conditions: compound 1.0 μM, poly-Glu:Tyr (4:1) substrate, [γ-32P]ATP, read-out: Inhibitory rate (%) at 1.0 μM
# Procedure: Human HER2 gene was cloned by RT-PCR using total RNA prepared from MCF7 cells as a template. The primer used for RT-PCR was prepared from base sequence (Genbank Accession No. M11730) information of HER2 gene, adding base sequence encoding DYKDDDD peptide and a restriction enzyme recognition sequence to a nucleotide sequence (2176-3918 of Genbank Accession No. M11730 as a base, and corresponding to 676-1255 amino acid of Genbank Accession No. NP_004439 as a protein) encoding the HER2 intracellular domain region, so that a DYKDDDD peptide tag would be attached to the N-terminus of the protein. The base sequence of the primer is shown in below.
# The RT reaction was performed using Superscript First-Strand Synthesis System for RT-PCR (Invitrogen) and the PCR reaction was performed using KOD-plus kit (TOYOBO). The obtained PCR product was electrophoresed on agarose gel (1%), and the DNA fragment amplified by PCR was recovered from the gel, and then digested with restriction enzymes Sal I and Sph I. The DNA treated with the restriction enzymes was electrophoresed on agarose gel (1%), and the obtained DNA fragment was recovered and ligated to plasmid pFASTBAC1 (Invitrogen) digested with restriction enzymes Sal I and Sph I to give expression plasmid pFB-HER2. The base sequence of the inserted fragment was confirmed and found to be identical with the base sequence of HER2 intracellular domain (2176-3918 of Genbank Accession M11730). Furthermore, using BAC-TO-BAC Baculovirus Expression System (Invitrogen), recombinant baculovirus BAC-HER2 was prepared.
# SF-21 cells were sown at 1×10^6 cells/mL to 1 L of Sf-900II SFM medium (Invitrogen) containing 10% fetal calf serum (trace), 50 mg/L gentamicin (Invitrogen) and 0.1% Pluronic F-68 (Invitrogen), and cultured with shaking in 2 L volume Erlenmeyer flask at 27° C., 100 rpm. After culturing for 24 hr, recombinant baculovirus BAC-HER2 (13.4 mL) was added thereto, and the cells were further cultured for 3 days. The culture medium was centrifuged at 2,000 rpm for 5 min to give virus-infected cells. The infected cells were washed with phosphate buffered saline (Invitrogen), centrifuged under the same conditions, and preserved at −80° C. The cryopreserved cells were thawed in ice and suspended in buffer A (50 mM Tris buffer (30 mL, pH 7.4) containing 20% glycerol, 0.15 M NaCl) supplemented with Complete Protease Inhibitor (Boehringer). The cells were ruptured 3 times with a Polytron homogenizer (Kinematica) at 20,000 rpm for 30 sec. The disrupt was clarified by centrifugation at 40,000 rpm for 30 min and filtered with a 0.45 μm filter. The filtrate was passed through a column packed with Anti-FLAG M2 Affinity Gel (4 mL, Sigma Aldrich CO.) at a flow rate of about 0.5 mL/min. The column was washed with buffer A, and eluted with buffer A containing 100 μg/mL of FLAG peptide. The eluate was concentrated with Vivaspin 20 (Vivascience) having a molecular weight cut off of 30K. The concentrate was purified by gel filtration using Hi-Load 16/60 Superdex 200pg (GE Healthcare Bioscience) equilibrated with buffer A. The fractions containing HER2 intracellular domain were collected and cryopreserved at −80° C.
# HER2 kinase reaction was carried out using 96-well plate. As a buffer for Kinase reaction, a buffer of a composition of 50 mM Tris-HCl (pH 7.5), 5 mM MnCl2, 2 mM dithiothreitol and 0.01% Tween-20 was used. The compound of the present invention was dissolved in dimethyl sulfoxide (DMSO), and diluted with a buffer for kinase reaction so that the DMSO concentration would become 0.1% during kinase reaction. The compound solution (10 μL) was mixed with a buffer for kinase reaction (20 μL) containing the HER2 intracellular domain (0.625 μg/mL) obtained in Experimental Example 1B and a polypeptide substrate poly-Glu:Tyr (4:1) (12.5 μg/mL, Sigma Ltd.) and the mixture was stood for 5 min at room temperature. […]
# T1 sequence (P04626 676-1255): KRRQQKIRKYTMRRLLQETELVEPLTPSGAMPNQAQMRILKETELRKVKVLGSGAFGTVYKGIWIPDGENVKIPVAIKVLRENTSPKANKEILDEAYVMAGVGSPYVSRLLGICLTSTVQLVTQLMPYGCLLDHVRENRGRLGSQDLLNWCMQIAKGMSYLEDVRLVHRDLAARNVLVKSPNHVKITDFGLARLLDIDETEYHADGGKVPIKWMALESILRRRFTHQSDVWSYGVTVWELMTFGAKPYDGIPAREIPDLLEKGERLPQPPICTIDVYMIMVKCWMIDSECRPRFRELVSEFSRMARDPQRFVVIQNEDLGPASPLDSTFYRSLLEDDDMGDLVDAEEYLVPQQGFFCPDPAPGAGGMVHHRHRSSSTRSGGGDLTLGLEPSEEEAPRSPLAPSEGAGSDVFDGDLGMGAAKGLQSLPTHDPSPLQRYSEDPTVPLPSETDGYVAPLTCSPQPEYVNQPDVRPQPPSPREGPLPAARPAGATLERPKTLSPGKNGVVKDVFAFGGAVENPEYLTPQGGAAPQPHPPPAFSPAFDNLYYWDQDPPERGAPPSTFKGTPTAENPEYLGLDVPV
row,Compound,inhibition at 1 µM [%]
1,"COC(=O)C1=Cc2c(ncnc2Nc2ccc(Oc3cccc(C(=O)NC(C)(C)C)c3)c(Cl)c2)NCC1 [Example 135, methyl 4-[(4-{3-[(tert-butylamino)carbonyl]phenoxy}-3-chlorophenyl)amino]-8,9-dihydro-7H-pyrimido[4,5-b]azepine-6-carboxylate]",97
2,"CC(C)(C)OC(=O)N1CCC(Oc2ccc(Nc3ncnc4c3C=C(CO)CCN4)cc2Cl)CC1 [Example 146, tert-butyl 4-(2-chloro-4-{[6-(hydroxymethyl)-8,9-dihydro-7H-pyrimido[4,5-b]azepin-4-yl]amino}phenoxy)piperidine-1-carboxylate]",92
3,"CC(C)(CS(=O)(=O)CCO)NC(=O)C1=Cc2c(ncnc2Nc2ccc(Oc3cccc(C(F)(F)F)c3)c(Cl)c2)NCC1 [Example 172, 4-({3-chloro-4-[3-(trifluoromethyl)phenoxy]phenyl}amino)-N-{2-[(2-hydroxyethyl)sulfonyl]-1,1-dimethylethyl}-8,9-dihydro-7H-pyrimido[4,5-b]azepine-6-carboxamide]",95
4,"CC(C)(C)NC(=O)c1cccc(Oc2ccc(Nc3ncnc4c3C=C(CNC(C)(C)CS(=O)(=O)CCO)CCN4)cc2Cl)c1 [Example 214, N-(tert-butyl)-3-[2-chloro-4-({6-[({2-[(2-hydroxyethyl)sulfonyl]-1,1-dimethylethyl}amino)methyl]-8,9-dihydro-7H-pyrimido[4,5-b]azepin-4-yl}amino)phenoxy]benzamide dihydrochloride]",99
5,"COC(=O)C1=Cc2c(ncnc2Nc2cnc(Oc3cccc(C(=O)NC(C)(C)C)c3)c(Cl)c2)NCC1 [Example 220, methyl 4-[(6-{3-[(tert-butylamino)carbonyl]phenoxy}-5-chloropyridin-3-yl)amino]-8,9-dihydro-7H-pyrimido[4,5-b]azepine-6-carboxylate]",96
6,"CC(C)(CS(=O)(=O)CCO)NC(=O)C1=Cc2c(ncnc2Nc2ccc(Oc3cccc(S(=O)(=O)CC4CC4)c3)c(Cl)c2)NCC1 [Example 227, 4-[(3-chloro-4-{3-[(cyclopropylmethyl)sulfonyl]phenoxy}phenyl)amino]-N-{2-[(2-hydroxyethyl)sulfonyl]-1,1-dimethylethyl}-8,9-dihydro-7H-pyrimido[4,5-b]azepine-6-carboxamide]",93
7,"CC(C)(C)NC(=O)c1cccc(Oc2ccc(Nc3ncnc4c3C=C(/C=N/OCCO)CCN4)cc2Cl)c1 [Example 231, N-(tert-butyl)-3-{2-chloro-4-[(6-{[(2-hydroxyethoxy)imino]methyl}-8,9-dihydro-7H-pyrimido[4,5-b]azepin-4-yl)amino]phenoxy}benzamide]",97
8,"CC(C)(C)NC(=O)c1cccc(Oc2ccc(Nc3ncnc4c3C=C(CNCCF)CCN4)cc2Cl)c1 [Example 234, N-(tert-butyl)-3-{2-chloro-4-[(6-{[(2-fluoroethyl)amino]methyl}-8,9-dihydro-7H-pyrimido[4,5-b]azepin-4-yl)amino]phenoxy}benzamide]",98
9,"CN(CCS(C)(=O)=O)CC1=Cc2c(ncnc2Nc2ccc(Oc3cccc(C(=O)NC(C)(C)C)c3)c(Cl)c2)NCC1 [Example 242, N-(tert-butyl)-3-(2-chloro-4-{[6-({methyl[2-(methylsulfonyl)ethyl]amino}methyl)-8,9-dihydro-7H-pyrimido[4,5-b]azepin-4-yl]amino}phenoxy)benzamide]",99
10,"CCOC(=O)/C=C/C1=Cc2c(ncnc2Nc2ccc(Oc3cccc(C(=O)NC(C)(C)C)c3)c(Cl)c2)NCC1 [Example 246, ethyl (2E)-3-{4-[(4-{3-[(tert-butylamino)carbonyl]phenoxy}-3-chlorophenyl)amino]-8,9-dihydro-7H-pyrimido[4,5-b]azepin-6-yl}acrylate]",98

# Biological target: T2, EGFR intracellular domain (Homo sapiens, UniProt P00533)
# T2 construct: made in house; host or cells: SF-21 insect cells infected with recombinant baculovirus BAC-EGFR
# T2 sequence (P00533 669-1210): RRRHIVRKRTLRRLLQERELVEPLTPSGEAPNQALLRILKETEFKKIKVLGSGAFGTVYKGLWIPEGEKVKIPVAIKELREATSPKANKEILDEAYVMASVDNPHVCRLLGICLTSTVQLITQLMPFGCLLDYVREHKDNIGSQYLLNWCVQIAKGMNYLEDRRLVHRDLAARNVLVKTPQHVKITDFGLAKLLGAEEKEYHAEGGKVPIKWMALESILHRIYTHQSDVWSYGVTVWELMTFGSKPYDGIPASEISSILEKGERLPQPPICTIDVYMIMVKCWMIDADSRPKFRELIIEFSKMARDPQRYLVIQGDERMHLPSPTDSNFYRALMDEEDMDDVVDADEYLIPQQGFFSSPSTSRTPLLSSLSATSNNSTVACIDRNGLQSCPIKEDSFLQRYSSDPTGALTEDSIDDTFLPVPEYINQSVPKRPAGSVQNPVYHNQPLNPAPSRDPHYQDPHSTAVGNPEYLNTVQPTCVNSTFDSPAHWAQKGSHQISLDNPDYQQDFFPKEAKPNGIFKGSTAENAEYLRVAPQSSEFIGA
# Assay: Assay of EGFR kinase inhibitory activity
# Assay type: biochemical
# Conditions: compound 1.0 μM, poly-Glu:Tyr (4:1) substrate, [γ-32P]ATP, read-out: Inhibitory rate (%) at 1.0 μM
# Procedure: Human EGFR gene was cloned by RT-PCR using total RNA prepared from A431 cell as a template. The primer used for RT-PCR was prepared from base sequence (Genbank Accession No. X00588) information of EGFR gene, adding DYKDDDD base sequence encoding the peptide and a restriction enzyme recognition sequence to a base sequence (2191-3819 of Genbank Accession No. X00588 as a base, and corresponding to 669-1210 amino acid of Genbank Accession No. NP_005219 as a protein) encoding the EGFR intracellular domain, so that a DYKDDDD peptide tag would be attached to the N-terminus of the protein. The base sequence of the primer is shown in below.
# The RT reaction was performed using Superscript First-Strand Synthesis System for RT-PCR (Invitrogen), and PCR reaction was performed using KOD-plus kit (TOYOBO). The obtained PCR product was electrophoresed on agarose gel (1%), and the DNA fragment amplified by PCR was recovered from the gel, and then digested with restriction enzymes Sal I and Sph I. The DNA treated with the restriction enzymes was electrophoresed on agarose gel (1%), and the obtained DNA fragment was recovered and ligated to plasmid pFASTBAC1 (Invitrogen) digested with restriction enzymes Sal I and Sph I to give expression plasmid pFB-EGFR. The base sequence of the inserted fragment was confirmed and found to be identical with the base sequence of the EGFR intracellular domain (2191-3819 of Genbank Accession X00588). Furthermore, virus stock BAG-EGFR of recombinant Baculovirus was prepared using BAC-TO-BAC Baculovirus Expression System (Invitrogen).
# SF-21 cells were sown at 1×10^6 cells/mL to 1 L of Sf-900II SFM medium (Invitrogen) containing 10% fetal calf serum (trace), 50 mg/L Gentamicin (Invitrogen) and 0.1% Pluronic F-68 (Invitrogen), and cultured with shaking in a 2 L Erlenmeyer flask at 27° C., 100 rpm. After culture for 24 hr, recombinant Baculovirus BAC-EGFR (13.4 mL) was added thereto, and the cells were further cultured for 3 days. The culture medium was centrifuged at 2,000 rpm for 5 min to give virus infected cells. The infected cells were washed with phosphate buffered saline (Invitrogen), centrifuged under the same conditions, and preserved at −80° C. The cryopreserved cells were thawed in ice and suspended in 30 mL of buffer A containing Complete Protease Inhibitor (Boehringer) (50 mM tris buffer (pH 7.4) containing 20% Glycerol, 0.15 M NaCl). The cells were disrupted 3 times at 20,000 rpm for 30 sec using a polytron homogenizer (Kinematica). The disrupt was clarified by centrifugation at 40,000 rpm for 30 min and filtered through a 0.45 μm filter. The filtrate was passed through a column packed with 4 mL of Anti-FLAG M2 Affinity Gel (Sigma Aldrich Co.) at a flow rate of about 0.5 mL/min. The column was washed with buffer A, and eluted with buffer A containing 100 μg/mL of FLAG peptide. The eluate was concentrated with Vivaspin 20 having a molecular weight cut off of 30 K (Vivascience). The concentrate was purified by gel filtration using Hi-Load 16/60 Superdex 200 pg (GE Healthcare Bioscience) equilibrated with buffer A. The fractions containing EGFR intracellular domain were collected and cryopreserved at −80° C.
# EGFR kinase reaction was carried out using a 96-well plate. As a buffer for Kinase reaction, a buffer of a composition of 50 mM Tris-HCl (pH 7.5), 5 mM MnCl2, 2 mM dithiothreitol and 0.01% Tween-20 was used. […]
row,Compound,inhibition at 1 µM [%]
1,"O=C(NCCCn1ccnc1)C1=Cc2c(ncnc2Nc2ccc(Oc3cccc(C(F)(F)F)c3)c(Cl)c2)NCC1 [Example 115, 4-({3-chloro-4-[3-(trifluoromethyl)phenoxy]phenyl}amino)-N-[3-(1H-imidazol-1-yl)propyl]-8,9-dihydro-7H-pyrimido[4,5-b]azepine-6-carboxamide]",95
2,"O=C(NCC(O)CO)C1=Cc2c(ncnc2Nc2ccc(Oc3cccc(C(F)(F)F)c3)c(Cl)c2)NCC1 (stereo not drawn) [Example 136, 4-({3-chloro-4-[3-(trifluoromethyl)phenoxy]phenyl}amino)-N-(2,3-dihydroxypropyl)-8,9-dihydro-7H-pyrimido[4,5-b]azepine-6-carboxamide]",97
